Data reported in PMC6256112, “Cannabinoid Receptor 2 Signalling Bias Elicited by 2,4,6-Trisubstituted 1,3,5-Triazines” (Frontiers in Pharmacology, 2018).
In brackets after ≈: the same amount, converted by molar mass. Read-outs that look alike come from different tables or passages of the source. Marks after values point to notes of the source that are not given here.

Experiments:
[1] = target: T1, hCB1 (Homo sapiens, UniProt P21554); test: Radioligand competition binding screen with [3H]-CP 55,940 on hCB1-expressing HEK membranes; conditions: for CB1 binding extent at 10 μM (%) (±SEM): 10 μM compound, displacement of 0.75 nM [3H]-CP 55,940; for CB2 selectivity over CB1 (in words): from CB1 binding at 10 μM versus CB2 affinity
T1 construct: expressed in transfected cells; host or cells: HEK (membranes)
T1 sequence (P21554 whole entry): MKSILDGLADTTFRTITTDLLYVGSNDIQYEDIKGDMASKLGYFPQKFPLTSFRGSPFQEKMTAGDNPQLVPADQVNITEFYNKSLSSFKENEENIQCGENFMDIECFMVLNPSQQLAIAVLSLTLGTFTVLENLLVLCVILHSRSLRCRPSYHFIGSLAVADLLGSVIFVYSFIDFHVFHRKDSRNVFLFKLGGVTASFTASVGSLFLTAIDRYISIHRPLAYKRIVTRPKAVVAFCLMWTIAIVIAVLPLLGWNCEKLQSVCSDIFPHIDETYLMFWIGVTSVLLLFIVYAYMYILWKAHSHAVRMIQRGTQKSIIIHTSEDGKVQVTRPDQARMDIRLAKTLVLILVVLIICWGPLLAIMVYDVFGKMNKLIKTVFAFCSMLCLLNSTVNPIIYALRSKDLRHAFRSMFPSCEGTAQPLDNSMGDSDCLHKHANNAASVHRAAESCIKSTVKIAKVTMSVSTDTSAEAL

[2] = target: T2, hCB2 (Homo sapiens, UniProt P34972); test: Radioligand competition binding with [3H]-CP 55,940 on hCB2-expressing HEK membranes; conditions: for inhibition at 10 µM: 1 h, read-out: CB2 binding extent at 10 μM (%) (±SEM)
T2 construct: expressed in transfected cells; host or cells: HEK Flp-in
T2 sequence (P34972 whole entry): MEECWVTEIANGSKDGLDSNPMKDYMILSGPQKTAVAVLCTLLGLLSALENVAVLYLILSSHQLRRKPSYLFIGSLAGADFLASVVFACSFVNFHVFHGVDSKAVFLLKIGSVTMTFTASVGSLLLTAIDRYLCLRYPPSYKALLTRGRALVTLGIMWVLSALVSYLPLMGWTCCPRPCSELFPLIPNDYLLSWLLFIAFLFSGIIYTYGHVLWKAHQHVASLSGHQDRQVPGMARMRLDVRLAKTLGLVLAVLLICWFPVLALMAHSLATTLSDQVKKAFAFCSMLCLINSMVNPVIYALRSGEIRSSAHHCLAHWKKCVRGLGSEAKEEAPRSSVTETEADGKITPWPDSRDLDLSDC

[3] = system: HEK Flp-in wt cells; test: CAMYEL cAMP assay in HEK Flp-in wt cells (non-hCB2-mediated effects); format: cell-based, human; conditions: for Non-hCB2-mediated effects on cAMP (in words): HEK Flp-in wt
[4] = target: T2, hCB2; test: Comparison of efficacy/potency and operational-model bias analysis between hCB2 pathways, reference CP 55,940; format: cell-based; conditions: for Internalisation – pERK Bias factor / cAMP – internalisation Bias factor / cAMP – pERK Bias factor: 10^ΔΔlogR; for Internalisation – pERK Bias factor / cAMP – internalisation Bias factor / cAMP – pERK Bias factor / Between-pathway signalling bias (in words): relative to CP 55,940; for Internalisation – pERK ΔΔlogR (±SEM) / cAMP – internalisation ΔΔlogR (±SEM) / cAMP – pERK ΔΔlogR (±SEM): relative to reference ligand CP 55,940
[5] = physchem; format: physicochemical; conditions: organic solvent or mixture
From the text: The piperazine-containing 1,3,5-triazines 1 and 7, assembled following literature protocols (compound “26a” in [Yrjölä et al., 2013]; compound “8” in [Yrjölä et al., 2015], respectively), were alkylated with various alkyl bromide linkers containing a Boc-protected amine at the terminus to give 3, 4, 8, 9 and 10 (Schemes 1, 2). These were then Boc-deprotected using acidic conditions to give primary amines 5, 6, 11, 12, and 13. One example of an acetylated linker (14) was also synthesised. Thirteen compounds were biologically tested (Table 1); five compounds had been reported previously (1, 2, 7, 15, 16) ([Yrjölä et al., 2013], [2015]), and the remainder were novel (5, 6, 9–14). […] 7 was therefore assayed in a higher final DMSO content (1%) than the other compounds (0.1%). Both vehicle concentrations were controlled for in all assays (negative/vehicle and positive controls).

[6] = target: T2, hCB2; test: hCB2 internalisation assay (immunocytochemistry of surface receptor), HEK Flp-in hCB2 cells; format: cell-based; set-up: Emax: dose or concentration left out as unconfirmed; conditions: for logR [log(τ/KA)] (±SEM) Internalisation: operational model transduction ratio
[7] = target: T2, hCB2; test: pERK AlphaLISA assay, HEK Flp-in hCB2 cells; format: cell-based; conditions: for Behaviour in pERK pathway (in words): 4 min; for logR [log(τ/KA)] (±SEM) pERK: operational model transduction ratio; for Time of maximal pERK response: time course experiment; for Emax: read-out: pERK (4 min) Emax (±SEM)
[8] = system: CB2; set-up: method as in Yrjölä et al., 2015; conditions: ref Yrjölä et al., 2015; cited from earlier work
[9] = target: T2, hCB2; test: Real-time CAMYEL BRET cAMP assay, forskolin-stimulated HEK Flp-in hCB2 cells; format: cell-based; conditions: for cAMP (5 min) Emax (±SEM): change relative to forskolin alone (100%), vehicle 0%, 10 and 14 approximate; for logR [log(τ/KA)] (±SEM) cAMP: operational model transduction ratio; for Emax: read-out: cAMP (5 min) Emax (±SEM)
Experimental: Cellular cAMP levels were measured using a real-time BRET biosensor (CAMYEL) as previously described ([Cawston et al., 2013]). In brief, cells were seeded in 10 cm dishes one day prior to transfection. The medium was then replaced and cells transfected with 5 μg of pcDNA3L-His-CAMYEL (ATCC, Manassas, VA, United States) using linear PEI (MW 25 kDa; Polysciences, Warrington, PA, United States) with a DNA:PEI ratio of 1:6. Approximately 24 h after transfection, cells were trypsinised and re-plated in poly-D-lysine treated white 96-well plates (Corning), at a density of 5–6 × 10^4 cells per well. For experiments involving pertussis toxin (PTX; Sigma-Aldrich) pre-treatment, cells were seeded in half the usual volume of medium, and then ∼5 h later, 2× concentrated PTX or vehicle (50% glycerol, […] Tris–HCl pH 7.5, 10 mM glycine, 500 mM NaCl) were prepared in medium and added to the existing plating medium (giving rise to a final PTX concentration of 100 ng mL^-1). Approximately 24 h after plating (or 16–20 h after applying PTX/vehicle in experiments involving PTX treatment), cells were washed once with Hank’s Balanced Salt Solution (HBSS, Thermo Fisher Scientific, catalogue #14025-134), and then equilibrated for 30 min in HBSS supplemented with 1 mg mL^-1 BSA. Coelenterazine h (final concentration 5 μM; NanoLight Technologies, Pinetop, AZ, United States) was added to each well and incubated for 5 min. Forskolin was added (final concentration 5 μM) and incubated for 6 min (allowing enough time for the induced cAMP increase to plateau), prior to vehicle/drug addition. All drugs and reagents were prepared in HBSS supplemented with 1 mg mL^-1 BSA. SR 144528 was a generous gift from Roche (Basel, Switzerland).
Assays were carried out in technical duplicate. Emissions were detected at 460 nm (Rluc) and 535 nm (YFP) with either a LUMIstar® Omega luminometer (BMG Labtech, Ortenberg, Germany) or CLARIOstar® (BMG Labtech). BRET ratios (535 nm emissions/460 nm emissions, where an increase in ratio corresponds to a decrease in cAMP) were normalised to pre-forskolin reads (i.e., with coelenterazine h present) to remove any variability present prior to addition of forskolin and drug/vehicle. A Lowess curve (GraphPad Prism) was fitted to individual technical replicates within an assay so that cAMP signalling data could be extrapolated from any time point as opposed to only those that were empirically measured (typically every 30–60 s). Data were normalised to matched vehicle (0%) and forskolin (100%) treatments, allowing compilation of data from independent experiments.

[10] = 10 μM compound, displacement of 0.5 nM [3H]-CP 55,940
[11] = compared to methylpiperazinyl-15
[12] = heterologous competition vs [3H]-CP 55,940, read-out: CB2 pKi (±SEM) (converted)
[13] = 4 min stimulation, 14 approximate (low potency), read-out: pERK (4 min) pEC50 (±SEM) (converted)
[14] = 5 min post-drug, 5 μM forskolin, 10 and 14 approximate (non-hCB2-mediated effects), read-out: cAMP (5 min) pEC50 (±SEM) (converted)
[15] = 5 min post-drug, 5 μM forskolin
[16] = read-out: Internalisation (1 h) Emax (±SEM)

Row | Structure (SMILES) | CB1 binding extent at 10 μM (%) (±SEM) [1] | CB2 selectivity over CB1 (in words) [1] | inhibition at 10 µM [2, 10] | Ki [2, 12] | Non-hCB2-mediated effects on cAMP (in words) [3] | Internalisation – pERK Bias factor [4] | cAMP – internalisation Bias factor [4] | cAMP – pERK Bias factor [4] | Between-pathway signalling bias (in words) [4] | Internalisation – pERK ΔΔlogR (±SEM) [4] | cAMP – internalisation ΔΔlogR (±SEM) [4] | cAMP – pERK ΔΔlogR (±SEM) [4] | EC50 ([6]; 1 h stimulation) | logR [log(τ/KA)] (±SEM) Internalisation [6] | Behaviour in pERK pathway (in words) [7] | EC50 [7, 13] | logR [log(τ/KA)] (±SEM) pERK [7] | Time of maximal pERK response [7] | GTPγS activity, % of maximum measured activity [8] | logR [log(τ/KA)] (±SEM) cAMP [9] | also measured
1 | CCOc1nc(NC23CC4CC(CC(C4)C2)C3)nc(N2CCNCC2)n1 [Compound 7, N-(ad-amantan-1-yl)-4-ethoxy-6-(piperazin-1-yl)-1,3,5-triazi n-2-amine] | 13.7 (4.1) % | likely also CB2-selective | 85.6% | 417 nM | most pronounced effects | 15.4 | 1.3 | 20.3 | away from activation of pERK | 1.19 (0.16)*** | 0.12 (0.31) | 1.31 (0.27)*** | 45.7 nM | 7.42 (0.26) | weak partial agonists | 1820 nM | 5.51 (0.05) | 4 min | ~60% | 7.29 (0.26) | Reduction in hCB2 affinity compared to 15 [2, 11]: ~100 fold; solubility [5]: 1000 µM (≈ 358 µg/mL); Emax at 10 µM ([6]; read-out: Internalisation (1 h) Emax (±SEM), 1 h stimulation, change in surface hCB2 relative to vehicle-treated (100%), for 13 efficacy at 10 μM): -61.4%; EC50 [9, 14]: 85.1 nM; cAMP (5 min) Emax (±SEM) [9, 15]: –43.0 (3.0) %
2 | CCOc1nc(NC23CC4CC(CC(C4)C2)C3)nc(N2CCN(CCOCCOCCNC(C)=O)CC2)n1 [Compound 14, N-(2-(2-(2-(4-(4-((Adamantan-1-yl)Amino)-6-Ethoxy-1,3,5-Triazin-2-yl)Piperazin-1-yl)Ethoxy)Ethoxy) Ethyl)Acetamide] | –18.8 (11.4) % | likely also CB2-selective |  |  |  | 8.6 | 0.2 | 1.6 | biased towards internalisation | 0.93 (0.13)** | –0.73 (0.25)* | 0.20 (0.25) |  | 6.81 (0.23) |  |  | 5.16 (0.09) | 4 min |  | 5.83 (0.23) | Ki [2]: 1780 nM; inhibition at 10 µM [2]: 76.2%; Reduction in hCB2 binding affinity compared to 15 [2, 11]: 2–3 log units; Non-hCB2-mediated cAMP effects: fold less potent than cAMP inhibition in hCB2-expressing cells ([3]; HEK Flp-in wt versus HEK Flp-in hCB2): ~5 fold; EC50 [6]: 174 nM; Emax [6, 16]: -61.8%; EC50 [7]: 7410 nM; Emax [7]: 4.66%; EC50 [9]: 955 nM; Behaviour in cAMP pathway (in words) ([9]; 5 μM forskolin): partial agonists; Emax [9]: -29.8%
3 | CCOc1nc(NC23CC4CC(CC(C4)C2)C3)nc(N2CCN(C)CC2)n1 [Compound 15, N-(Adamantan-1-yl)-4-ethoxy-6-(4-methylpiperazin-1-yl)-1,3,5-triazin-2-amine] |  | somewhat CB2-selective |  |  |  | 5.7 | 0.3 | 1.6 | biased towards internalisation | 0.76 (0.15)* | –0.56 (0.15) | 0.20 (0.13) |  | 8.92 (0.09) | equivalent efficacies to CP 55,940 |  | 7.45 (0.10) | 4 min |  | 8.12 (0.09) | Ki [2]: 4.27 nM; inhibition at 10 µM [2]: 92.9%; EC50 [6]: 1.23 nM; Emax [6, 16]: -56.5%; EC50 [7]: 35.5 nM; Emax [7]: 9.96%; Functional GTPγS selectivity for CB2 versus CB1 [8]: 1000 to 10,000 fold; GTPγS functional behaviour (in words) [8]: full agonist; EC50 [9]: 7.94 nM; Emax [9]: -39.6%
4 | CCOc1nc(NC23CC4CC(CC(C4)C2)C3)nc(N2CCN(CCF)CC2)n1 [Compound 16, N-(adamantan-1-yl)-4-et hoxy-6-(4-(2-fluoroethyl)piperazin-1-yl)-1,3,5-triazin-2-amine] |  | somewhat CB2-selective | 95.6% | 1.62 nM | most pronounced effects | 2.2 | 0.7 | 1.6 | did not demonstrate any indication of between-pathway bias | 0.35 (0.13) | –0.14 (0.22) | 0.21 (0.20) | 1.2 nM | 8.90 (0.19) |  | 12.3 nM | 7.84 (0.07) | 4 min | ~70% | 8.52 (0.19) | Efficacy relative to maximal efficacy measured across all compounds, all three pathways [4]: ~80%; Emax ([4]; read-out: Efficacy relative to maximal efficacy measured across all compounds, all three pathways, internalisation, cAMP and pERK): 75 to 80%; Behaviour in internalisation pathway (in words) ([6]; 1 h stimulation): significantly less efficacious; Functional GTPγS selectivity for CB2 versus CB1 [8]: 1000 to 10,000 fold; EC50 [9, 14]: 2.82 nM; cAMP (5 min) Emax (±SEM) [9, 15]: –35.6 (2.2) %
